According to PubChem BioAssay (NCI):
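Cultured in 96-well plates, cells were exposed to test compound for 48 hours across five concentrations. GI50: concentration for 50% inhibition of growth. TGI marks complete inhibition of growth.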

Columns and labels:
Experiment in all cases: NCI-60 cell line screen, 48 h
OVCAR-5 ovarian = system: OVCAR-5 ovarian
LOX IMVI melanoma = system: LOX IMVI melanoma
NCI-H522 lung = system: NCI-H522 lung
RXF 393 renal = system: RXF 393 renal
786-0 renal = system: 786-0 renal
EKVX NSCLC = system: EKVX NSCLC
RPMI-8226 leukemia = system: RPMI-8226 leukemia
K-562 leukemia = system: K-562 leukemia
NCI-H226 lung = system: NCI-H226 lung
SR leukemia = system: SR leukemia

Compound	TGI (OVCAR-5 ovarian)	TGI (LOX IMVI melanoma)	TGI (NCI-H522 lung)	TGI (RXF 393 renal)	TGI (786-0 renal)	TGI (EKVX NSCLC)	TGI (RPMI-8226 leukemia)	TGI (K-562 leukemia)	TGI (NCI-H226 lung)	GI50 (SR leukemia)	TGI (SR leukemia)	GI50 (OVCAR-5 ovarian)	GI50 (RPMI-8226 leukemia)	GI50 (K-562 leukemia)	GI50 (LOX IMVI melanoma)	GI50 (NCI-H226 lung)	GI50 (RXF 393 renal)	GI50 (786-0 renal)	GI50 (EKVX NSCLC)
CC1=C(C(=O)Nc2ccccc2)C(c2ccc(Cl)c(Cl)c2)C(C(=O)Nc2ccccc2)=C(C)N1	32.4 µM	28.5 µM	25.8 µM	21.7 µM	25.7 µM	30.9 µM	–	–	–	–	–	–	–	–	–	–	–	–	–
O=S(=O)(OI(OI(OS(=O)(=O)C(F)(F)F)c1ccccc1)c1ccccc1)C(F)(F)F	> 100 µM	> 100 µM	> 100 µM	73.7 µM	> 100 µM	> 100 µM	> 100 µM	> 100 µM	> 100 µM	–	–	–	–	–	–	–	–	–	–
O=c1[nH]c(=O)n(C2CC(O)C(CO)O2)cc1OS(=O)(=O)C(F)(F)F (stereo unspecified)	> 100 µM	> 100 µM	> 100 µM	> 100 µM	> 100 µM	> 100 µM	> 100 µM	> 100 µM	> 100 µM	–	–	–	–	–	–	–	–	–	–
NCCCn1c2c(c3ccc([N+](=O)[O-])cc3c1=O)C(=O)c1cc(I)ccc1-2	1.95 µM	1.39 µM	–	2.28 µM	1.14 µM	2.32 µM	0.265 µM	0.196 µM	26.2 µM	< 0.01 µM	0.929 µM	0.556 µM	0.0218 µM	< 0.0147 µM	< 0.01 µM	0.786 µM	0.503 µM	0.021 µM	0.79 µM
O/N=C1\CCCCC1C(NO)c1ccccc1 (stereo unspecified)	> 100 µM	> 100 µM	> 100 µM	> 100 µM	> 100 µM	> 100 µM	> 100 µM	> 100 µM	–	–	–	–	–	–	–	–	–	–	–
c1ccc2c(c1)CCc1c(-c3ccncc3)n[nH]c1-2	> 100 µM	54.8 µM	–	–	> 100 µM	75.5 µM	84.2 µM	> 100 µM	55.6 µM	–	73.8 µM	–	–	–	–	–	–	–	–
COC(=N)c1csc(C2OC(CO)C(O)C2O)n1 (stereo unspecified)	> 100 µM	> 100 µM	> 100 µM	–	> 100 µM	> 100 µM	> 100 µM	> 100 µM	> 100 µM	–	–	–	–	–	–	–	–	–	–
CCOC(=O)C(Br)=C1OC(=O)c2ccccc2-c2ccccc21 (mixture of isomers)	42.6 µM	35.9 µM	32 µM	–	32.7 µM	> 100 µM	38.1 µM	22.7 µM	60.4 µM	–	47.2 µM	–	–	–	–	–	–	–	–
CCCCCCCCc1cc2c(O)c(c1)Cc1cc(CCCCCCCC)cc(c1O)Cc1cc(CCCCCCCC)cc(c1O)Cc1cc(CCCCCCCC)cc(c1O)Cc1cc(CCCCCCCC)cc(c1O)Cc1cc(CCCCCCCC)cc(c1O)C2	> 100 µM	> 100 µM	–	–	> 100 µM	–	–	> 100 µM	–	–	> 100 µM	–	–	–	–	–	–	–	–
FC(F)(F)c1ccc2nc(NCc3ccccc3)c(-c3ccccc3)nc2c1	> 100 µM	52.7 µM	–	71.5 µM	53.1 µM	> 100 µM	98.9 µM	–	> 100 µM	–	80.8 µM	–	–	–	–	–	–	–	–
CNCCCNc1ccnc2cc(Cl)ccc12	72 µM	36.6 µM	–	65.4 µM	> 100 µM	–	55.7 µM	> 100 µM	87.5 µM	22.5 µM	70.8 µM	21.1 µM	20 µM	15.2 µM	16.8 µM	25.9 µM	14.5 µM	32.9 µM	–
Nc1c(S(=O)(=O)c2ccc(Cl)cc2)c2nc3ccccc3nc2n2ccnc12	> 100 µM	–	> 100 µM	–	> 100 µM	> 100 µM	> 100 µM	> 100 µM	84.1 µM	–	–	–	–	–	–	–	–	–	–
